Results on one substance are retold here after patent publication US11534457B2, “Use of dextran sulfate” (priority 2017, dated 2022).

Test [1] concerns βIII-tubulin expression in mouse cortical neurons. Briefly: βIII-tubulin immunostaining (differentiation-related protein expression). Type of test: cell-based. To be noted: 48 h. How it is done:
Neurons were cultured as 40,000 cells per well and Schwann cells 3,000 cells per. Cells were treated after 24 hours. The number of cells per well depended on the growth phenotype, proliferative capacity, etc.
PNGM was prepared by adding PNGM Singlequots (Lonza) to PNBM medium and pre-warmed to 37° C. Cells were thawed in a 37° C. water bath for no longer than 2 min and gently transferred into a 15 ml tube. 5 ml of medium was gently added drop-wise. Cell suspension was mixed by inverting the tube carefully twice. Cells were counted with a Cellometer AUTO T4 (Nexcelom Bioscience). 40,000 cells per well were seeded in previously coated 96-well plates. Cells were incubated at 37° C. with 5% CO2. […]
LMW-DS was prepared in the culture media of choice for each cell line and added to the respective wells in the doses 0.01 and 0.1 mg/ml. For cell survival assays cells were analyzed after 24 and 48 hours in eight identical wells/dose/time point. Differentiation and protein expression assay was analyzed after 48 hours, also in octuplicates. […]
The Acumen cytometer allows the direct cytometric analysis of attached cells without prior detachment. […] The protein content of the cells can also be directly measured and expressed as either ‘total protein content’ or ‘mean protein content’.

Test [2] relates to 4H system [HUVEC+(IL-4 and histamine)]. Briefly: BioMAP 4H system. Type of test: cell-based, Human. An excerpt:
In this study LMW-DS was characterized by profiling in the BioMAP® Diversity PLUS panel. The BioMAP® panel consists of human primary cell-based systems designed to model different aspects of the human body in an in vitro format. The 12 systems in the BioMAP® Diversity PLUS panel (Table 32) allow test agent characterization in an unbiased way across a broad set of systems modeling various human disease states. The BioMA®P systems are constructed with one or more primary cell types from healthy human donors, with stimuli, such as cytokines or growth factors, added to capture relevant signaling networks that naturally occur in human tissue or pathological conditions. […]
Systems are derived from either single cell types or co-culture systems. […] Test agents prepared in either DMSO (small molecules; final concentration 0.1%) or PBS (biologics) are added at the indicated concentrations 1-hr before stimulation, and remain in culture for 24-hrs or as otherwise indicated (48-hrs, MyoF system; 72-hrs, BT system (soluble readouts); 168-hrs, BT system (secreted IgG)). […] Soluble factors from supernatants are quantified using either HTRF® detection, bead-based multiplex immunoassay or capture ELISA. Overt adverse effects of test agents on cell proliferation and viability (cytotoxicity) are detected by sulforhodamine B (SRB) staining, for adherent cells, and alamarBlue® reduction for cells in suspension. […]

With “low molecular weight dextran sulfate [LMW-DS]”, in test [1] (0.01 and 0.1 mg/ml), the βIII-tubulin intensity result is on record as “significantly increased”. Besides, the “size of βIII-tubulin positive cells vs control culture” value in test [1] is “larger”. Also, the Increased biomarker activity result in test [2] is “uPAR”.
